In ChEMBL document CHEMBL1152844, “Synthesis and anti-HIV studies of 2- and 3-adamantyl-substituted thiazolidin-4-ones” (Eur J Med Chem, 2009):
The source made the active and inactive calls. No cut-off for these calls is given here.

Columns and labels:
[1] = target: Human immunodeficiency virus type 1 reverse transcriptase (Human immunodeficiency virus 1, UniProt Q72547); assay: Inhibition of HIV1 3B reverse transcriptase after 30 mins
[2] = test system: Human immunodeficiency virus 1; assay: Antiviral activity against HIV1 3B infected in human CEM cells assessed as inhibition of virus-induced cytopathicity after 4 days; type: functional, organism-based; details: Human immunodeficiency virus 1, 3B, CCRF-CEM, 96 h
[3] = test system: Human immunodeficiency virus 2; assay: Antiviral activity against HIV2 ROD infected in human CEM cells assessed as inhibition of virus-induced cytopathicity after 4 days; type: functional, organism-based; details: Human immunodeficiency virus 2, ROD, CCRF-CEM, 96 h
CCRF-CEM = assay: Cytotoxicity against HIV-infected human CEM cells; type: cell-based; details: ccrf-cem
[4] = Selectivity index, ratio of CC50 for human CEM cells to EC50 for HIV1 3B; type: toxicity, cell-based, CCRF-CEM; details: read-out: Ratio CC50/EC50
[5] = Inhibition of HIV2 ROD reverse transcriptase after 30 mins; design: species or system Human immunodeficiency virus 2
Human alphaherpesvirus 1 = assay: Antiviral activity against Herpes simplex virus type 1 infected in HEL cells; type: functional, organism-based
Human alphaherpesvirus 2 = assay: Antiviral activity against Herpes simplex virus type 2 infected in HEL cells; type: functional, organism-based
Vaccinia virus = assay: Antiviral activity against Vaccinia virus infected in HEL cells; type: functional, organism-based; details: Orthopoxvirus vaccinia
[6] = test system: Vesicular stomatitis virus; assay: Antiviral activity against Vesicular stomatitis virus infected in HEL cells; type: functional, organism-based
Human respirovirus 3 = assay: Antiviral activity against Parainfluenza virus type 3 infected in african green monkey Vero cells; type: functional, organism-based
[7] = test system: Mammalian orthoreovirus 1; assay: Antiviral activity against Reovirus 1 infected in african green monkey Vero cells; type: functional, organism-based
Sindbis virus = assay: Antiviral activity against Sindbis virus infected in african green monkey Vero cells; type: functional, organism-based
Coxsackievirus B4 [8] = assay: Antiviral activity against Coxsackievirus B4 infected in african green monkey Vero cells; type: functional, organism-based
Punta Toro virus = assay: Antiviral activity against Punta Toro virus infected in african green monkey Vero cells; type: functional, organism-based
[9] = test system: Vesicular stomatitis virus; assay: Antiviral activity against Vesicular stomatitis virus infected in human HeLa cells; type: functional, organism-based
[10] = test system: Respiratory syncytial virus; assay: Antiviral activity against Respiratory syncytial virus infected in human HeLa cells; type: functional, organism-based
Coxsackievirus B4 [11] = assay: Antiviral activity against Coxsackievirus B4 infected in human HeLa cells; type: functional, organism-based
Feline coronavirus = assay: Antiviral activity against Feline coronavirus infected in crandel feline kidney cells; type: functional, organism-based
Influenza A virus [12] = assay: Antiviral activity against Influenza virus type A H1N1 infected in MDCK cells; type: functional, organism-based
Influenza A virus [13] = assay: Antiviral activity against Influenza virus type A H3N2 infected in MDCK cells; type: functional, organism-based
Influenza B virus = assay: Antiviral activity against Influenza virus type B infected in MDCK cells; type: functional, organism-based

Row | Compound | EC50 [2] | EC50 [3] | CC50 (CCRF-CEM) | selectivity ratio [4] | Activity (Human alphaherpesvirus 1) | Activity (Human alphaherpesvirus 2) | Activity (Vaccinia virus) | Activity [6] | Activity (Human respirovirus 3) | Activity [7] | Activity (Sindbis virus) | Activity (Coxsackievirus B4 [8]) | Activity (Punta Toro virus) | Activity [9] | Activity [10] | Activity (Coxsackievirus B4 [11]) | Activity (Feline coronavirus) | Activity (Influenza A virus [12]) | Activity (Influenza A virus [13]) | Activity (Influenza B virus) | further results
1 | O=C1CSC(c2c(F)cccc2F)N1CC12CC3CC(CC(C3)C1)C2 (stereo unspecified) | 11 µM | 35.7 µM | > 275 µM | > 25 | inactive | inactive | inactive | inactive | inactive | inactive | inactive | inactive | inactive | inactive | inactive | inactive | inactive | inactive | inactive | inactive | IC50 [1]: 495 µM; IC50 [5]: > 600 µM
2 | Cc1cc(C)nc(N2C(=O)CS[C@@H]2C23CC4CC(CC(C4)C2)C3)c1 |  |  |  |  | inactive | inactive | inactive | inactive | inactive | inactive | inactive | inactive | inactive | inactive | inactive | inactive | inactive | inactive | inactive | inactive | IC50 [1]: 13.4 µM; IC50 [5]: > 600 µM
3 | O=C1CSC(c2c(Cl)cccc2Cl)N1CCC12CC3CC(CC(C3)C1)C2 (stereo unspecified) | 3.4 µM | ≥ 9.7 µM | 19 µM | 5.5 | inactive | inactive | inactive | inactive | inactive | inactive | inactive | inactive | inactive | inactive | inactive | inactive | inactive | inactive | inactive | inactive | IC50 [1]: 226 µM; IC50 [5]: > 600 µM
4 | O=C1CSC(c2c(Cl)cccc2Cl)N1CC12CC3CC(CC(C3)C1)C2 (stereo unspecified) | 1 µM | ≥ 10.1 µM | 21.1 µM | 21 | inactive | inactive | inactive | inactive | inactive | inactive | inactive | inactive | inactive | inactive | inactive | inactive | inactive | inactive | inactive | inactive | IC50 [1]: 42.9 µM; IC50 [5]: ≥ 600 µM
5 | Cc1cc(C)nc(N2C(=O)CSC2CC23CC4CC(CC(C4)C2)C3)n1 (stereo unspecified) | 8.6 µM | 30 µM | 27 µM | 3 | inactive | inactive | inactive | inactive | inactive | inactive | inactive | inactive | inactive | inactive | inactive | inactive | inactive | inactive | inactive | inactive | 
6 | Cc1ccnc(N2C(=O)CSC2CC23CC4CC(CC(C4)C2)C3)c1 (stereo unspecified) | 18.1 µM | 21.9 µM | 29.3 µM | 1.6 | inactive | inactive | inactive | inactive | inactive | inactive | inactive | inactive | inactive | inactive | inactive | inactive | inactive | inactive | inactive | inactive | 
7 | Cc1cc(Cl)nc(N2C(=O)CSC2CC23CC4CC(CC(C4)C2)C3)n1 (stereo unspecified) | > 53 µM | ≥ 53 µM | 102 µM | < 1.9 | inactive | inactive | inactive | inactive | inactive | inactive | inactive | inactive | inactive | inactive | inactive | inactive | inactive | inactive | inactive | inactive | 
8 | Cc1cc(N2C(=O)CSC2C23CC4CC(CC(C4)C2)C3)nc(C)n1 (stereo unspecified) | ≥ 58.2 µM | ≥ 58.2 µM | 94 µM | < 1.6 | inactive | inactive | inactive | inactive | inactive | inactive | inactive | inactive | inactive | inactive | inactive | inactive | inactive | inactive | inactive | inactive | 
9 | O=C1CSC(c2c(F)cccc2Cl)N1CCC12CC3CC(CC(C3)C1)C2 (stereo unspecified) | 3.8 µM | ≥ 10.1 µM | 18.5 µM | 4.7 | inactive | inactive | inactive | inactive | inactive | inactive | inactive | inactive | inactive | inactive | inactive | inactive | inactive | inactive | inactive | inactive | 
10 | Cc1cccc(N2C(=O)CSC2CC23CC4CC(CC(C4)C2)C3)n1 (stereo unspecified) | 17.8 µM | 21.9 µM | 35 µM | 1.9 | inactive | inactive | inactive | inactive | inactive | inactive | inactive | inactive | inactive | inactive | inactive | inactive | inactive | inactive | inactive | inactive | 
11 | O=C1CSC(c2c(F)cccc2F)N1CCC12CC3CC(CC(C3)C1)C2 (stereo unspecified) | 2 µM | ≥ 4 µM | 7.9 µM | 4 | inactive | inactive | inactive | inactive | inactive | inactive | inactive | inactive | inactive | inactive | inactive | inactive | inactive | inactive | inactive | inactive | IC50 [1]: 31.7 µM; IC50 [5]: ≥ 600 µM
12 | O=C1CSC(c2c(F)cccc2Cl)N1CC12CC3CC(CC(C3)C1)C2 (stereo unspecified) | 2 µM | ≥ 10.5 µM | 20.2 µM | 10 | inactive | inactive | inactive | inactive | inactive | inactive | inactive | inactive | inactive | inactive | inactive | inactive | inactive | inactive | inactive | inactive | 
